This test concerns the target T1, HEK cells stably transfected with tetracycline inducible hNR1 and hNR2A (Homo sapiens, UniProt Q05586+Q12879).
T1 construct: expressed in transfected cells; host or cells: HEK cells, stably transfected, tetracycline/doxycycline inducible
Briefly: Assay 1: Cell-Based Assay, cytosolic calcium response to positive allosteric modulators (with 30 μM glycine and 300 nM L-glutamate, EC30). The settings on record: Table 3; cytosolic calcium response, with 30 μM glycine and 300 nM L-glutamate (EC30); — = no plateau was reached. Summed up: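 Cells induced 24 h with 7.5 μg mL^−1 doxycycline plus 500 μM (+)-ketamine, loaded 60 min at 37 °C with calcium dye in Mg-free HBSS (1.8 mM Ca, probenecid, 10 μM (+)-ketamine, pH 7.15). Peak RFU over 5 min after compound addition, scaled to 100 μM L-glutamate (100%) and 0 μM (0%); four-parameter Hill fit for EC50, max % if no plateau.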

In general, EC50 refers to the concentration at which the effect is half-maximal.

T1 sequence (Q12879 23-1464, other chains not shown): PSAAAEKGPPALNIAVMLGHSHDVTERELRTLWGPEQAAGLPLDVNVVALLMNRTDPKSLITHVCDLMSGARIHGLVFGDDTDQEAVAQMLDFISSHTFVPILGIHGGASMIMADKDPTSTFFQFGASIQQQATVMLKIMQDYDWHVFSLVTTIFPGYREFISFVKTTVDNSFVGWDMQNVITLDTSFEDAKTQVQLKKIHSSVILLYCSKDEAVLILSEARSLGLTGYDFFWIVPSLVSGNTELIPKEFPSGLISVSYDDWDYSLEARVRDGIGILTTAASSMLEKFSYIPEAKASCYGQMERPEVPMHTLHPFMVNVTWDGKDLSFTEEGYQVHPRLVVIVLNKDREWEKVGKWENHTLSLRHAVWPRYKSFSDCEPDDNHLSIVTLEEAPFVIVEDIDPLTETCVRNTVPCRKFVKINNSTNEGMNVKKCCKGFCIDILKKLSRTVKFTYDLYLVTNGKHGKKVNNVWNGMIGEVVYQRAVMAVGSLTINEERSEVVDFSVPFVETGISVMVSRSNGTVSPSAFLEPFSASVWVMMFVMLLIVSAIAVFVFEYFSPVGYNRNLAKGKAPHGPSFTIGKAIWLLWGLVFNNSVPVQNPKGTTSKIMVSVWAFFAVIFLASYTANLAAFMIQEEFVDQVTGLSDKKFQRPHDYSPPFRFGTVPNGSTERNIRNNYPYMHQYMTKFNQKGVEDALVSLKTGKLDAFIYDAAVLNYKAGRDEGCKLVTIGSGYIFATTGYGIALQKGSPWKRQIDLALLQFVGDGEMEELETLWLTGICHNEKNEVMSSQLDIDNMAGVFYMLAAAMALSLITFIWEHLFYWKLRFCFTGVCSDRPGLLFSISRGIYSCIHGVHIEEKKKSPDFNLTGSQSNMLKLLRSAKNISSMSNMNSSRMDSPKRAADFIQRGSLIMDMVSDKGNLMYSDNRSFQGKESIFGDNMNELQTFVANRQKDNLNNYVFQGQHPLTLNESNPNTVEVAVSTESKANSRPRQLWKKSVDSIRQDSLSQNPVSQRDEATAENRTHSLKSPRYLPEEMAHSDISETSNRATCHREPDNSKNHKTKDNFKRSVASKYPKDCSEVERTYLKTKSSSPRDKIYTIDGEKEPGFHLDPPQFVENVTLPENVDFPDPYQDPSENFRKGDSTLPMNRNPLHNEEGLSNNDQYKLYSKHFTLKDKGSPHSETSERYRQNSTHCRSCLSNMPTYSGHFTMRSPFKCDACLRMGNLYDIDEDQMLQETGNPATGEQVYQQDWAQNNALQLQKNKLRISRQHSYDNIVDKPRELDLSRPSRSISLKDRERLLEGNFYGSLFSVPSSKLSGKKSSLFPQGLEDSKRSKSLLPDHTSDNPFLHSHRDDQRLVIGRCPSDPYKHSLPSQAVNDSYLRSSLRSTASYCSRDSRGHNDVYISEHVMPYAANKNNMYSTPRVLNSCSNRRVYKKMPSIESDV

For the compound `Cc1sc2nc(Cn3nc(C(F)(F)F)cc3Cl)cc(=O)n2c1C1CC1C#N` (stereo not shown) [compound 104, 2-[7-[[5-chloro-3-(trifluoromethyl)pyrazol-1-yl]methyl]-2-methyl-5-oxo-thiazolo[3,2-a]pyrimidin-3-yl]cyclopropanecarbonitrile], the EC50 was 0.0341 µM.
Then `CCNC(=O)c1c(C#N)sc2nc(Cc3cccc(C(F)(F)F)c3F)cc(=O)n12` [compound 105, 2-Cyano-N-ethyl-7-[[2-fluoro-3-(trifluoromethyl)phenyl]methyl]-5-oxo-thiazolo[3,2-a]pyrimidine-3-carboxamide], with 3.9 µM.
Next, `Cc1sc2nc(Cc3cccc(C(F)(F)F)c3F)cc(=O)n2c1C(=O)NC(C)C` [compound 106, 7-[[2-fluoro-3-(trifluoromethyl)phenyl]methyl]-N-isopropyl-2-methyl-5-oxo-thiazolo[3,2-a]pyrimidine-3-carboxamide]: 3.4 µM; `Cc1sc2nc(Oc3cccc(C#N)c3F)cc(=O)n2c1C1CC1C` (stereo not shown) [compound 107, 2-fluoro-3-[2-methyl-3-(2-methylcyclopropyl)-5-oxo-thiazolo[3,2-a]pyrimidin-7-yl]oxy-benzonitrile]: 0.994 µM; `Cc1sc2nc(Cn3nc(C(F)(F)F)cc3Cl)cc(=O)n2c1C(C)(C)O` [compound 108, 7-[[5-chloro-3-(trifluoromethyl)pyrazol-1-yl]methyl]-3-(1-hydroxy-1-methyl-ethyl)-2-methyl-thiazolo[3,2-a]pyrimidin-5-one]: 0.247 µM.
Then `Cc1sc2nc(Cn3nc(Cl)cc3C(F)(F)F)cc(=O)n2c1C(C)(C)O` [compound 109, 7-[[3-chloro-5-(trifluoromethyl)pyrazol-1-yl]methyl]-3-(1-hydroxy-1-methyl-ethyl)-2-methyl-thiazolo[3,2-a]pyrimidin-5-one], with 0.734 µM; and `Cc1sc2nc(Cn3nc(C(F)(F)F)cc3Cl)cc(=O)n2c1C(C)O` (stereo not shown) [compound 110, 7-[[5-chloro-3-(trifluoromethyl)pyrazol-1-yl]methyl]-3-(1-hydroxyethyl)-2-methyl-thiazolo[3,2-a]pyrimidin-5-one], with 1.88 µM; and `Cc1sc2nc(Cn3nc(Cl)cc3C(F)(F)F)cc(=O)n2c1C(C)O` (stereo not shown) [compound 111, 7-[[3-chloro-5-(trifluoromethyl)pyrazol-1-yl]methyl]-3-(1-hydroxyethyl)-2-methyl-thiazolo[3,2-a]pyrimidin-5-one], with 6 µM.
For `CCC(C)NC(=O)c1c(C)sc2nc(Cc3cccc(C(F)(F)F)c3F)cc(=O)n12` (stereo not shown) [compound 112, 7-[[2-fluoro-3-(trifluoromethyl)phenyl]methyl]-2-methyl-5-oxo-N-sec-butyl-thiazolo[3,2-a]pyrimidine-3-carboxamide], the concentration giving a half-maximal response (EC50) came to 0.825 µM.
Next, `Cc1sc2nc(Cc3cccc(C#N)c3F)cc(=O)n2c1N1CCC1` [compound 113, 3-[[3-(azetidin-1-yl)-2-methyl-5-oxo-thiazolo[3,2-a]pyrimidin-7-yl]methyl]-2-fluoro-benzonitrile]: 2.37 µM; `Cc1sc2nc(Cn3nc(C(F)(F)F)cc3Cl)cc(=O)n2c1C#N` [compound 114, 7-[[5-chloro-3-(trifluoromethyl)pyrazol-1-yl]methyl]-2-methyl-5-oxo-thiazolo[3,2-a]pyrimidine-3-carbonitrile]: 1.34 µM.
As for `Cc1sc2nc(Cn3nc(Cl)cc3C(F)(F)F)cc(=O)n2c1C#N` [compound 115, 7-[[3-chloro-5-(trifluoromethyl)pyrazol-1-yl]methyl]-2-methyl-5-oxo-thiazolo[3,2-a]pyrimidine-3-carbonitrile], the EC50 is 2.75 µM.
Then `Cc1sc2nc(Cn3nc(C(F)(F)F)cc3Cl)cc(=O)n2c1C1CC1` [compound 116, 7-[[5-chloro-3-(trifluoromethyl)pyrazol-1-yl]methyl]-3-cyclopropyl-2-methyl-thiazolo[3,2-a]pyrimidin-5-one], with 0.351 µM.

For the origin of these results see patent US9988400B2 (Genentech, Inc., priority 2013, dated 2018).
